According to patent US6323001A, “Increasing the trehalose content of organisms by transforming them with combinations of the structural genes for trehalose synthase” (BTG International Ltd., priority 1994, dated 2001):
Where two headings read alike, the source gives them in different places.

Biological target: T1, Tre6Pase activity of intact trehalose synthase (Saccharomyces cerevisiae, UniProt P31688)
T1 construct: Intact trehalose synthase was purified from commercial baker's yeast; made in house; host or cells: commercial baker's yeast (native enzyme purified, not recombinant)
T1 sequence (P31688 1-896): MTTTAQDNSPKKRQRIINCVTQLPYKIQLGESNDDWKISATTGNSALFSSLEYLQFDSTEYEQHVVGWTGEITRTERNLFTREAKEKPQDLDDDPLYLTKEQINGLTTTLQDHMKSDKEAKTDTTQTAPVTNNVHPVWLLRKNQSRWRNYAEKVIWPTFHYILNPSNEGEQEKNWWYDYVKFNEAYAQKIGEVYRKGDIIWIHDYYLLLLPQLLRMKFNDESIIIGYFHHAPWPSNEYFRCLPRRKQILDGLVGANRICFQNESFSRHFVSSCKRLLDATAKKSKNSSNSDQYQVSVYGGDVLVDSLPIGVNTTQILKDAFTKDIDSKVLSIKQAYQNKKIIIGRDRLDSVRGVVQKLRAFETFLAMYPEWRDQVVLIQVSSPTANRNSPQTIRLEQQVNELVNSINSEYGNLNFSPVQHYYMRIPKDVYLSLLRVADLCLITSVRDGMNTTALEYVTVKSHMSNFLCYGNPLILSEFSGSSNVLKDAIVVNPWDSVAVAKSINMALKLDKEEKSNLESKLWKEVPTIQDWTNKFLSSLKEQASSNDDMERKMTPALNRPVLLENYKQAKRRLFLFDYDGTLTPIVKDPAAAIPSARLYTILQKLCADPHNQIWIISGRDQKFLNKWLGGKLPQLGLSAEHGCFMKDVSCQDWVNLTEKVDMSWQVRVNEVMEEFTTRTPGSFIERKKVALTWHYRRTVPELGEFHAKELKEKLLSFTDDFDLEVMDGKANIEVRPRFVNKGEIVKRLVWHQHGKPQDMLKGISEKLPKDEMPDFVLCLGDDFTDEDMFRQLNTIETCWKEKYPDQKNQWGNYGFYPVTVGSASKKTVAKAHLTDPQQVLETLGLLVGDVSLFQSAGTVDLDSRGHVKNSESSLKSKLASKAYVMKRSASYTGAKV
T1 sequence (Q00764 1-495 partner): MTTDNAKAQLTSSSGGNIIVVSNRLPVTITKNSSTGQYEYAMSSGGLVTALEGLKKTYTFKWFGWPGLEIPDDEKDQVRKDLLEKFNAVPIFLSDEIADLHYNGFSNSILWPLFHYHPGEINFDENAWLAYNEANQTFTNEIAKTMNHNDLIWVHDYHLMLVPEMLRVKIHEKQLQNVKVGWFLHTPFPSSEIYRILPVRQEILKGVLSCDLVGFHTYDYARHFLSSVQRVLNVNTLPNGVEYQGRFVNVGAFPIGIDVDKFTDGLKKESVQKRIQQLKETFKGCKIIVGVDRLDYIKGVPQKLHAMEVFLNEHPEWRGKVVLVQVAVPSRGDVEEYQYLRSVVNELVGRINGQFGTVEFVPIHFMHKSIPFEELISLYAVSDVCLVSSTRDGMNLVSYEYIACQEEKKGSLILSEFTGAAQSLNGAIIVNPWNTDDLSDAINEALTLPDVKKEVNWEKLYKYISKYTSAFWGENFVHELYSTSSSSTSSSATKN
T1 sequence (P38427 1-1098 partner): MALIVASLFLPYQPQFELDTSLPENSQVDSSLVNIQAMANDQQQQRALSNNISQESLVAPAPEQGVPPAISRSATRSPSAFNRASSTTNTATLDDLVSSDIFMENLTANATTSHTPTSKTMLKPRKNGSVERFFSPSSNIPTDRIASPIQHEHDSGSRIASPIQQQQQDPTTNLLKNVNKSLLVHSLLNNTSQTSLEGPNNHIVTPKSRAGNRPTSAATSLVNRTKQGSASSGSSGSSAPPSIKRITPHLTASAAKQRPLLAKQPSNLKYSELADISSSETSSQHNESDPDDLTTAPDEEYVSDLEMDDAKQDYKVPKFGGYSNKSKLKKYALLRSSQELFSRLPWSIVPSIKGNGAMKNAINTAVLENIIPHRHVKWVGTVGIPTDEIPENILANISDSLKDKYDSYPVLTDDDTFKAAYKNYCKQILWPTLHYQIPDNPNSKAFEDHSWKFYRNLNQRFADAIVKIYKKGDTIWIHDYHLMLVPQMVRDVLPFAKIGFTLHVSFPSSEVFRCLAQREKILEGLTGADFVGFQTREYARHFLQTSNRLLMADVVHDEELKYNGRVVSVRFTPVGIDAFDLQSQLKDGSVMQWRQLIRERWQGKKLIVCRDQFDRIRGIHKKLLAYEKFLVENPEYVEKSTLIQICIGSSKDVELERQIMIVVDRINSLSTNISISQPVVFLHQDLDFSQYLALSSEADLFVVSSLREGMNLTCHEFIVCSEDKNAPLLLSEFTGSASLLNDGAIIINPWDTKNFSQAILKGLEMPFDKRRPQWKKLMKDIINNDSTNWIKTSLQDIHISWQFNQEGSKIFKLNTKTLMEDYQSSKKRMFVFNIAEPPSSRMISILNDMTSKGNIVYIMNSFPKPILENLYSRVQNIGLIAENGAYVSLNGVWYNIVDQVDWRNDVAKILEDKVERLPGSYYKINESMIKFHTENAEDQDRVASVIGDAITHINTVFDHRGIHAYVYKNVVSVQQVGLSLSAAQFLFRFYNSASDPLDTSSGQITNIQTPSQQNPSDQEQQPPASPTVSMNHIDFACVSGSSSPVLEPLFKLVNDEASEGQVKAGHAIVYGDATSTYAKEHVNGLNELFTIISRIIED
Test: Tre6Pase assay of intact trehalose synthase
Type: biochemical, baker's yeast
Experimental: With microbial materials, Tre6Pase and Tre6P synthase standard assays and other kinetic measurements were made as described by Londesborough & Vuorio [(1991) loc. cit.] except that the standard Tre6P synthase assay mixture contained 5 mM F6P unless stated otherwise.
In one experiment intact trehalose synthase (0.28 Tre6P synthase units, ≈9.4 μg) was incubated with or without 0.5 μg of trypsin at 30° C. in 250 μl of 13 mM HEPES pH 7.0 containing 1 mM MgCl2, 0.5 mM EDTA, 0.5 mM dithiothreitol, 0.2 M NaCl and 0.5 mM benzamidine. Its Tre6P synthase activity was determined at intervals using standard assay mixtures (containing 5 mM F6P) containing no or 4 mM K phosphate pH 6.8, and samples were prepared for SDS-PAGE analysis immediately before and 48 min after addition of the trypsin.
Intact trehalose synthase was prepared as in Example 1. Kinetic assays were done at 30° C. as described in General Methods and Materials.

Compound | effect on Tre6Pase activity (in the absence of phosphate, intact enzyme) | inhibition at 5000 µM (read-out: inhibition of Tre6Pase activity, 5 mM F6P, saturating phosphate concentrations, intact enzyme) | inhibition at 5000 µM (read-out: inhibition of Tre6Pase activity, 5 mM F6P, sub-optimal phosphate concentrations, intact enzyme) | EC50 (initial rates, intact enzyme, read-out: half maximal activation of Tre6Pase by phosphate)
O=C(CO)[C@@H](O)[C@H](O)[C@H](O)COP(=O)(O)O [Transformant F6P, Fructose 6-phosphate] | did not affect | 10 to 15% | 20 to 30% | 
O=P(O)(O)O [phosphate, K phosphate] |  |  |  | 600 µM
